According to patent US20170190705A1, “Compositions and Methods for Inhibiting BMP” (THE BRIGHAM AND WOMAN'S HOSPITAL, INC., priority 2014, published 2017):

Tests used:
Format in all cases: biochemical
SRMS = SRMS (Homo sapiens, UniProt Q9H3Y6); experiment: Kinome profiling SRMS; conditions: read-out: Inhibitory activity SRMS; for inhibition at 0.1 µM: 100 nM
Procedure: (§1) . The kinome-wide selectivity was determined following the methods previously reported by Mohedas et al., ACS Chem Biol 2013, 8, 1291-1302 and Sanvitale et al., PLoS One 2013, 8, e62721.

HIPK4 = molecular target: T1, HIPK4 (Homo sapiens, UniProt Q8NE63); experiment: Kinome profiling HIPK4; conditions: read-out: Inhibitory activity HIPK4; for inhibition at 0.1 µM: 100 nM
T1 sequence (Q8NE63 1-616): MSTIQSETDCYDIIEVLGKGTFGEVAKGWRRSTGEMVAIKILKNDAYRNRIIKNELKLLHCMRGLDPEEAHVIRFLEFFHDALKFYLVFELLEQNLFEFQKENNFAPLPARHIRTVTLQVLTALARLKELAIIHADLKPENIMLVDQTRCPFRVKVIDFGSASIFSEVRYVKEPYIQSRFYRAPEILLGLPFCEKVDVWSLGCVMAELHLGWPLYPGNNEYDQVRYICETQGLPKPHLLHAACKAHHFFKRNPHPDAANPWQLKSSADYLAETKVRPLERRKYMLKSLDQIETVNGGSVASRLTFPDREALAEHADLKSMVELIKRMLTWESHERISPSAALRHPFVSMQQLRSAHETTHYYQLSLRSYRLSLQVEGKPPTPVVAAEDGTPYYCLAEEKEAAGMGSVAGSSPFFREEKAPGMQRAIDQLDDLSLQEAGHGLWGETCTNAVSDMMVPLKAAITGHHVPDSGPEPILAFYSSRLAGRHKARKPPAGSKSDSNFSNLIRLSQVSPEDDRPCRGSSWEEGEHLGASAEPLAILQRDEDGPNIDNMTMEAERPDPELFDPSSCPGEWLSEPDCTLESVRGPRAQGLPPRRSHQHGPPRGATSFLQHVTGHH
Procedure: as §1

PRKD3 = molecular target: T2, PRKD3 (Homo sapiens, UniProt O94806); experiment: Kinome profiling PRKD3; conditions: read-out: Inhibitory activity PRKD3; for inhibition at 0.1 µM: 100 nM
T2 sequence (O94806 1-890): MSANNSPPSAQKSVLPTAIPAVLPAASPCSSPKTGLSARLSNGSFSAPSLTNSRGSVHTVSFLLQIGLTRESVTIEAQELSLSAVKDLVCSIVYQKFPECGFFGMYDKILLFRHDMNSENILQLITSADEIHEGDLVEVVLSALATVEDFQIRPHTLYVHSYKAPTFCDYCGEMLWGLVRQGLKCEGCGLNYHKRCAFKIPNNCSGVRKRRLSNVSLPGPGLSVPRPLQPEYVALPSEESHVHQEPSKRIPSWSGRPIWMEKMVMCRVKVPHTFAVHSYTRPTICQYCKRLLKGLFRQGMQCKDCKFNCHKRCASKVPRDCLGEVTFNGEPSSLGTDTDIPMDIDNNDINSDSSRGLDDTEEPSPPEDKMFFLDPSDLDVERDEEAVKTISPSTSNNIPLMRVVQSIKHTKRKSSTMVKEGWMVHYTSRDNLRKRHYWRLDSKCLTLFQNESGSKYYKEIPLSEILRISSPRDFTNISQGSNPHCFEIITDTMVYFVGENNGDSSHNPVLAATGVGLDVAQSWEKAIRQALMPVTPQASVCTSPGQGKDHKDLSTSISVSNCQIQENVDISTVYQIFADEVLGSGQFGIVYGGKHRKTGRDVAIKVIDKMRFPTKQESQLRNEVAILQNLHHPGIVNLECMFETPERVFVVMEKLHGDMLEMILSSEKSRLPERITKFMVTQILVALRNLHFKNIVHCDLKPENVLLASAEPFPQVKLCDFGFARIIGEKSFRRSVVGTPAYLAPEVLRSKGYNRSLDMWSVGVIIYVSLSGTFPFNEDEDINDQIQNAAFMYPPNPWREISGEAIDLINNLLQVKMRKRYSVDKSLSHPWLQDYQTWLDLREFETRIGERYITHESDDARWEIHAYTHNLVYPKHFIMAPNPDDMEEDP
Procedure: as §1

ZAP70 = molecular target: T3, ZAP70 (Homo sapiens, UniProt P43403); experiment: Kinome profiling ZAP70; conditions: read-out: Inhibitory activity ZAP70; for inhibition at 0.1 µM: 100 nM
T3 sequence (P43403 1-619): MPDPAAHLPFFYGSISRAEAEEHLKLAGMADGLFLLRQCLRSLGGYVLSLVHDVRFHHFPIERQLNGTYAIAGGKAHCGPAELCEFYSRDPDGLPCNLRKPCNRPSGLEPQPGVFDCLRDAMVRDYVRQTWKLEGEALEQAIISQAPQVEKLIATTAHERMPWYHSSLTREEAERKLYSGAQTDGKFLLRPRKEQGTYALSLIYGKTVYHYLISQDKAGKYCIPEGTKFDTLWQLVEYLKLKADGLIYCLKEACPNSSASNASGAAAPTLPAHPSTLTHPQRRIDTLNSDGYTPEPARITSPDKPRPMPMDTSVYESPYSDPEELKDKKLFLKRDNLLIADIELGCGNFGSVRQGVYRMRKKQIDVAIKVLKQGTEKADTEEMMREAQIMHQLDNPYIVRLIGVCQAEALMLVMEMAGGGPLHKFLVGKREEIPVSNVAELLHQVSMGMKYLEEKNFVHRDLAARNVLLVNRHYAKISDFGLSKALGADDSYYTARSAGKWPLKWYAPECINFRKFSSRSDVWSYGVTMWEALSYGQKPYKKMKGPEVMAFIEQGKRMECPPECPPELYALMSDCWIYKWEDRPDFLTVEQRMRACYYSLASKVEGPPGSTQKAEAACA
Procedure: as §1

FGFR1 = FGFR1 (Homo sapiens, UniProt P11362); experiment: Kinome profiling FGFR1; conditions: read-out: Inhibitory activity FGFR1; for inhibition at 0.1 µM: 100 nM
Sequence of FGFR1 (P11362 22-822): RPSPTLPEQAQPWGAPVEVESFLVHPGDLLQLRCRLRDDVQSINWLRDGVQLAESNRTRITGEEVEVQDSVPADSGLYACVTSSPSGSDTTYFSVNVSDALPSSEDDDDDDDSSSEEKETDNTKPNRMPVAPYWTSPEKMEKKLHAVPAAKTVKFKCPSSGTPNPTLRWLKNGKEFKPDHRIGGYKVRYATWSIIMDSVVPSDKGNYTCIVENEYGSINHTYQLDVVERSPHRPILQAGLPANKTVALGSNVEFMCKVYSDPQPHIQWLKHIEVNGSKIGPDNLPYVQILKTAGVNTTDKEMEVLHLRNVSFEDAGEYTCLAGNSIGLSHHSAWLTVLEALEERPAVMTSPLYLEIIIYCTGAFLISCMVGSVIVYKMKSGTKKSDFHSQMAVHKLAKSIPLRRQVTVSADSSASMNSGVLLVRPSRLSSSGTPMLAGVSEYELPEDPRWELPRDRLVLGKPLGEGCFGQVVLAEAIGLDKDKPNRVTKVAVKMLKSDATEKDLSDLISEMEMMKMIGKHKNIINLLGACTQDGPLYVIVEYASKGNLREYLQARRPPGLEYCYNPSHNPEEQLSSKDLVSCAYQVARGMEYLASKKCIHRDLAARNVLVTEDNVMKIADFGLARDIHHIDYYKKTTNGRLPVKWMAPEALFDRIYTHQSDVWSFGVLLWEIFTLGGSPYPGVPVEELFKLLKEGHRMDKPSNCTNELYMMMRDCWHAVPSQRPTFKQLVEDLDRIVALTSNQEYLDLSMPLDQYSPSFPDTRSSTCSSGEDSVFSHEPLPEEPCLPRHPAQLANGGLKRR
Procedure: as §1

PLK1 = PLK1 (Homo sapiens, UniProt P53350); experiment: Kinome profiling PLK1; conditions: read-out: Inhibitory activity PLK1; for inhibition at 0.1 µM: 100 nM
Sequence of PLK1 (P53350 whole entry): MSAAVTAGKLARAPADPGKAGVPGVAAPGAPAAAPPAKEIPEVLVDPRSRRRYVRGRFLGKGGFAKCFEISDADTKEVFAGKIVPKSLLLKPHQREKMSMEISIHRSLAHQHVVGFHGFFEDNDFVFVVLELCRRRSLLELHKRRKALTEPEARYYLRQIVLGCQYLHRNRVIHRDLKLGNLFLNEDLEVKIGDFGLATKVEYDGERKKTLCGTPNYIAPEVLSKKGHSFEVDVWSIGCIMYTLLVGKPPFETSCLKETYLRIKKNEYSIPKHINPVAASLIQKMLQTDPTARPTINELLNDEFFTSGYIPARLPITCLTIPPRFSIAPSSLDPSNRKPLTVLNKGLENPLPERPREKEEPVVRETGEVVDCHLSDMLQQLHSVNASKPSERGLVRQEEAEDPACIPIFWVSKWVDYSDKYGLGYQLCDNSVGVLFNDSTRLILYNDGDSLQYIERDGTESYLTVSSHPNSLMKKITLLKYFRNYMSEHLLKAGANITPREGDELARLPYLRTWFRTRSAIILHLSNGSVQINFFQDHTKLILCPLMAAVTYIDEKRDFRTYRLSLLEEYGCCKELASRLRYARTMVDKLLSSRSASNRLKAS
Procedure: as §1

Sequence of SRMS (Q9H3Y6 whole entry): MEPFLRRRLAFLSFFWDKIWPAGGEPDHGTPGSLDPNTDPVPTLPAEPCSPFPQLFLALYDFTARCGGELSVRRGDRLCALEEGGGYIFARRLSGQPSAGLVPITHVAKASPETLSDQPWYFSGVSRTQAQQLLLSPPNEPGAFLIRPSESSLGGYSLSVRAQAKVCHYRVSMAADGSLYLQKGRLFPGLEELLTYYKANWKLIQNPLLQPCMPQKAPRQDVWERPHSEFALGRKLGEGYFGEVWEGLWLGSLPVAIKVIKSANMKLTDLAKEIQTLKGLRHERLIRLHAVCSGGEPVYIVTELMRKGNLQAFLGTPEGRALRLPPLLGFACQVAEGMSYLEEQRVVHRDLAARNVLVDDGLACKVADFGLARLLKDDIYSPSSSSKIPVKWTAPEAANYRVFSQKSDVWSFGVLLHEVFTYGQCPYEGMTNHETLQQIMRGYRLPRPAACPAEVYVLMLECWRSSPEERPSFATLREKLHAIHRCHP

Row | Compound | inhibition at 0.1 µM (SRMS) [%] | inhibition at 1 µM (SRMS) [%] | inhibition at 0.1 µM (HIPK4) [%] | inhibition at 1 µM (HIPK4) [%] | inhibition at 0.1 µM (PRKD3) [%] | inhibition at 1 µM (PRKD3) [%] | inhibition at 0.1 µM (ZAP70) [%] | inhibition at 1 µM (ZAP70) [%] | inhibition at 0.1 µM (FGFR1) [%] | inhibition at 1 µM (FGFR1) [%] | inhibition at 0.1 µM (PLK1) [%] | inhibition at 1 µM (PLK1) [%]
1 | COc1cc(-c2cc(-c3ccc(N4CCNCC4)cc3)cnc2C)cc(OC)c1OC [Compound 10, 1-(4-(6-methyl-5-(3,4,5-trimethoxyphenyl)pyridin-3-yl)phenyl)piperazine] | 0 | 1 | 5 | 8 | 2 | 21 | 4 | 5 | 5 | 5 | 4 | 3
2 | COc1cc(-c2cc(-c3ccc(N4CCNCC4)cc3)cnc2N)cc(OC)c1OC [Compound 15, 5-(4-(piperazin-1-yl)phenyl)-3-(3,4,5-trimethoxyphenyl)pyridin-2-amine] | 11 | 33 | 1 | 2 | 7 | 38 | 1 | 1 | 3 | 8 | 3 | 1
